The target of test [1] is interaction between HDM2 and p53 (GST-hMDM2 (1-188) / biotinylated-p53 (1-83)) (Homo sapiens (Human), UniProt Q00987). The experiment in a line: HTRF2 Assay (improved HTRF assay). Type of test: binding. The following applies: read-out: HTRF2 IC50.
Test [2] deals with T1, interaction between HDM2 and p53 (GST-hMDM2 / biotinylated-p53) (Homo sapiens (Human), UniProt Q00987). The following applies: read-out: HTRF3 IC50; HTRF1 conditions except 20 uL GST-hMDM2 incubated with 1.0 ul diluted compound.
T1 sequence (Q00987 1-188): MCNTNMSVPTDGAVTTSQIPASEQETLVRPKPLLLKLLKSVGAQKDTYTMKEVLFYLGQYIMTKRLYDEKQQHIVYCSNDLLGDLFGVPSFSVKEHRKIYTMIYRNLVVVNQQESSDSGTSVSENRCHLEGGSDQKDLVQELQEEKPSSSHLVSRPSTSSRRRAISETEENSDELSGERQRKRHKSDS
The target in test [3] is T1, interaction between HDM2 and p53 (GST-hMDM2 / biotinylated-p53). The experiment in a line: biochemical.
Test [4] addresses interaction between HDM2 and p53 (GST-hMDM2 aa 1-188 / biotinylated-p53 aa 1-83) (Homo sapiens (Human), UniProt Q00987).
The mark [5] stands for this setting: 0.2 nM GST-hMDM2 (1-188), 0.5 nM biotinylated-p53 (1-83), 100 mM KF.

Like-named read-outs stand apart in the source and are kept apart here.

Sequence of interaction between HDM2 and p53 (GST-hMDM2 aa 1-188 / biotinylated-p53 aa 1-83) (Q00987 1-188): as above
Sequence of interaction between HDM2 and p53 (GST-hMDM2 (1-188) / biotinylated-p53 (1-83)) (Q00987 1-188): as above

For `CN(C)C(=O)C[C@H]1O[C@H](c2cccc(Cl)c2)[C@H](c2ccc(Cl)cc2)N(CC2CC2)C1=O`, the IC50 in test [1] (setting [5]) was determined as 7.56 µM; in test [2] it was 2.78 µM.
Turning to `CN1C(=O)CO[C@@H](c2ccc(Cl)cc2)[C@H]1c1ccc(Cl)cc1` (mixture of isomers) [(5R,6S)-5,6-Bis(4-chlorophenyl)-4-methylmorpholin-3-one and (5S,6R)-5,6-bis(4-chlorophenyl)-4-methylmorpholin-3-one], the IC50 in test [3] came to 38.6 µM; in test [4] it was 11.8 µM.
Regarding “(2R,5S,6R)-5,6-Bis(4-chlorophenyl)-4-methyl-2-(pyridin-4-ylmethyl)morpholin-3-one and (2S,5R,6S)-5,6-bis(4-chlorophenyl)-4-methyl-2-(pyridin-4-ylmethyl)morpholin-3-one [Example 41]”, the IC50 in test [1] (setting [5]) amounted to 4.53 µM; in test [2], 5.6 µM.
As for `O=C1CS(=O)(=O)[C@@H](c2cccc(Cl)c2)[C@@H](c2ccc(Cl)cc2)N1CC1CC1` [(5R,6S)-6-(3-chlorophenyl)-5-(4-chlorophenyl)-4-(cyclopropylmethyl)-3-thiomorpholinone 1,1-dioxide], the IC50 in test [1] (setting [5]) came to 22.4 µM; in test [4] it was 4.76 µM.
`CS(=O)(=O)OCC[C@H]1O[C@H](c2cccc(Cl)c2)[C@H](c2ccc(Cl)cc2)N(CC2CC2)C1=O`: the IC50 turned out to be 4.81 µM in test [1] (setting [5]) and 6.86 µM in test [2].
For `CN1C(=O)[C@@H](Cc2cccc(C(N)=O)c2)O[C@H](c2ccc(Cl)cc2)[C@@H]1c1ccc(Cl)cc1`, the IC50 turned out to be 7.39 µM in test [1] (setting [5]) and 12.4 µM in test [2].
Consider `CCC[C@H](C(=O)N1CCN(CCC(=O)O)CC1)N1C(=O)CO[C@@H](c2ccc(Cl)cc2)[C@H]1c1ccc(Cl)cc1`, for which the IC50 in test [1] (setting [5]) came to 3.6 µM; in test [2] it was 4.59 µM.
With `CC(C)N1C(=O)CS(=O)(=O)[C@@H](c2cccc(Cl)c2)[C@H]1c1ccc(Cl)cc1` [(5R,6S)-6-(3-chlorophenyl)-5-(4-chlorophenyl)-4-(1-methylethyl)-3-thiomorpholinone 1,1-dioxide], in test [4], the IC50 came out at 1.56 µM.
For the molecule `CN1C(=O)[C@@H](Cc2ccc(C(N)=O)cc2)O[C@H](c2ccc(Cl)cc2)[C@@H]1c1ccc(Cl)cc1`, the 50% inhibitory concentration (IC50) in test [1] (setting [5]) was determined as 3.66 µM; in test [2], 5.8 µM.
Regarding `CCC[C@H](C(=O)NCC(N)=O)N1C(=O)[C@H](Cc2ccc(C#N)cc2)O[C@@H](c2ccc(Cl)cc2)[C@H]1c1ccc(Cl)cc1` (racemic) [Example 34, (R)—N-(2-Amino-2-oxoethyl)-2-((2S,3R,6S)-2,3-bis(4-chlorophenyl)-6-(4-cyanobenzyl)-5-oxomorpholino)pentanamide and (S)—N-(2-amino-2-oxoethyl)-2-((2R,3S,6R)-2,3-bis(4-chlorophenyl)-6-(4-cyanobenzyl)-5-oxomorpholino)pentanamide], the IC50 in test [1] is 0.745 µM; in test [3], 0.486 µM.
For `CCC[C@H](CN)N1C(=O)CO[C@@H](c2ccc(Cl)cc2)[C@H]1c1ccc(Cl)cc1` [(5R,6S)-4-((1R)-1-(aminomethyl)butyl)-5,6-bis(4-chlorophenyl)-3-morpholinone], the IC50 was found to be 6.09 µM in test [1] (setting [5]) and 6.88 µM in test [3].
With `CCC[C@H](c1nnn[nH]1)N1C(=O)[C@H](Cc2ccc(C#N)c(F)c2)O[C@@H](c2ccc(Cl)cc2)[C@H]1c1ccc(Cl)cc1` [Example 35, 4-(((2S,5R,6S)-4-((R)-1-(1H-Tetrazol-5-yl)butyl)-5,6-bis(4-chlorophenyl)-3-oxomorpholin-2-yl)methyl)-2-fluorobenzonitrile], the IC50 in test [1] (setting [5]) turned out to be 0.473 µM; in test [2], 0.403 µM.

The values above are taken from patent US11407721B2, “CIS-morpholinone and other compounds as MDM2 inhibitors for the treatment of cancer” (AMGEN INC., priority 2013, dated 2022).
